Drawing on US10251394B2, “Molecules having pesticidal utility, and intermediates, compositions, and processes, related thereto” (Dow AgroSciences LLC, priority 2016, dated 2019), this text covers pest or weed control and YFM rating for 7 compounds.

The structures appear in SMILES notation.

Holding throughout (type): in vivo
Experiment [1] has as its system Beet Armyworm (Spodoptera exigua). Kind of experiment: Bioassay on Beet Armyworm (BAW), 128-well diet tray assay. The note with it: Beet Armyworm, Table ABC, read-out: BAW rating. The method in brief:
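Percent mortality, averaged over eight wells, was scored after five to seven days at 25° C under 14:10 light-dark. Each well's diet carried 50 μg/cm^2 of test molecule applied in acetone-water (90:10) and dried before one to five second-instar larvae were added.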

The test system of experiment [2] is Green Peach Aphid (Myzus persicae). Kind of experiment: Bioassay on Green Peach Aphid (GPA), foliar spray on cabbage seedlings. The note with it: 72 h, Table ABC, read-out: GPA rating. On the procedure: Example B: Bioassays on Green Peach Aphid (Myzus Persicae, MYZUPE) (“GPA”) Certain molecules disclosed in this document were tested against GPA using procedures described in the following example. In the reporting of the results, the “GPA & YFM Rating Table” was used (See Table Section). Cabbage seedlings grown in 3-inch pots, with 2-3 small (3-5 cm) true leaves, were used as test substrate. The seedlings were infested with 20-50 GPA (wingless adult and nymph stages) one day prior to chemical application. Four pots with individual seedlings were used for each treatment. Test molecules (2 mg) were dissolved in 2 mL of acetone/methanol (1:1) solvent, forming stock solutions of 1000 ppm test molecule. The stock solutions were diluted 5× with 0.025% Tween 20 in water to obtain the solution at 200 ppm test molecule. A hand-held aspirator-type sprayer was used for spraying a solution to both sides of […] leaves until runoff. Reference plants (solvent check) were sprayed with the diluent only containing 20% by volume of acetone/methanol (1:1) solvent. Treated plants were held in a holding room for three days at approximately 25° C. and ambient relative humidity (RH) prior to grading. Evaluation was conducted by counting the number of live aphids per plant under a microscope. Percent Control was measured by using Abbott's correction formula (W. S. Abbott, “A Method of Computing the Effectiveness of an Insecticide” J. Econ. Entomol. 18 (1925), pp. 265-267) as follows. Corrected % Control=100*(X−Y)/X • where • X=No. of live aphids on solvent check plants and • Y=No. of live aphids on treated plants The results are indicated in the table entitled “Table ABC: Biological Results” (See Table Section).

Experiment [3] deals with Cabbage Looper (Trichoplusia ni). In words: Bioassay on Cabbage Looper (CL), 128-well diet tray assay. The note with it: Cabbage Looper, Table ABC, read-out: CL rating. The method in brief: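 Mortality after five to seven days at 25° C (14:10 photoperiod), averaged over eight wells per compound. Diet in each well carried 50 μg/cm^2 of dried test molecule and received one to five second-instar larvae.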

Experiment [4] concerns Yellow Fever Mosquito (Aedes aegypti). Kind of experiment: Bioassay on Yellow Fever Mosquito (YFM) larvae, 96-well plate. The note with it: Table ABC. In outline:
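About 1-day-old larvae in water with liver powder were added to wells holding compound from a 4000 ppm DMSO master diluted in 90:10 water:acetone. Plates covered and kept at room temperature for 3 days, then each well scored for mortality on a rating scale.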

On to `O=C(NC1(C(=O)NCC(F)(F)F)CC1)c1ccc(/C(F)=C/C(c2cc(Cl)c(Cl)c(Cl)c2)C(F)(F)F)cc1C(F)(F)F` (centres unmarked) [F3, (Z)-4-(1,4,4,4-Tetrafluoro-3-(3,4,5-trichlorophenyl)but-1-en-1-yl)-N-(1-((2,2,2-trifluoroethyl)carbamoyl)cyclopropyl)-2-(trifluoromethyl)benzamide], for which the pest or weed control at 50 µg/cm2 in experiment [1] and in experiment [3] was 50 to 100% each time. In addition, the pest or weed control at 200 µg/mL in experiment [2] was 80 to 100%.
For `C=CCc1c(Cl)cc(C(/C=C(\F)c2ccc(C(=O)N[C@H](C)C(=O)NCC(F)(F)F)c(C(F)(F)F)c2)C(F)(F)F)cc1Cl` (stereo partly drawn) [F146, 4-((Z)-3-(4-Allyl-3,5-dichlorophenyl)-1,4,4,4-tetrafluorobut-1-en-1-yl)-N—((R)-1-oxo-1-((2,2,2-trifluoroethyl)amino)propan-2-yl)-2-(trifluoromethyl)benzamide], the pest or weed control at 50 µg/cm2 in experiment [1] and in experiment [3] was 50 to 100% each time. In experiment [4], the YFM rating entry is “B (More than 0-Less than 80)”. Further, the pest or weed control at 200 µg/mL in experiment [2] was in the range of 0 to 80%.
As for `O=C(N[C@@H]1CON(CC(F)(F)F)C1=O)c1ccc(/C(F)=C/C(c2cc(F)c(F)c(F)c2)C(F)(F)F)cc1C(F)(F)F` (stereo partly drawn) [F155, N—((R)-3-Oxo-2-(2,2,2-trifluoroethyl)isoxazolidin-4-yl)-4-((Z)-1,4,4,4-tetrafluoro-3-(3,4,5-trifluorophenyl)but-1-en-1-yl)-2-(trifluoromethyl)benzamide], the pest or weed control at 50 µg/cm2 in experiment [1] and in experiment [3] was 50 to 100% throughout. For the same compound, the YFM rating entry in experiment [4] is reported as “A (80-100)”. Also, the pest or weed control at 200 µg/mL in experiment [2] fell in the range of 80 to 100%.
As to `O=C(CNC(=O)c1ccc(/C(F)=C/C(c2cc(F)c(F)c(F)c2)C(F)(F)F)cc1C(F)(F)F)NCC(F)(F)F` (centres unmarked) [F160, (Z)—N-(2-Oxo-2-((2,2,2-trifluoroethyl)amino)ethyl)-4-(1,4,4,4-tetrafluoro-3-(3,4,5-trifluorophenyl)but-1-en-1-yl)-2-(trifluoromethyl)benzamide], the pest or weed control at 50 µg/cm2 in experiment [1] and in experiment [3] was 50 to 100% in each case. For the same compound, the YFM rating entry in experiment [4] is listed as “A (80-100)”. In experiment [2], the pest or weed control at 200 µg/mL was in the range of 80 to 100%.
Consider `CCN(CC(F)(F)F)C(=O)CNC(=O)c1ccc(/C(F)=C/C(c2cc(Cl)c(Cl)c(Cl)c2)C(F)(F)F)cc1C(F)(F)F` (centres unmarked) [F167, (Z)—N-(2-(ethyl(2,2,2-trifluoroethyl)amino)-2-oxoethyl)-4-(1,4,4,4-tetrafluoro-3-(3,4,5-trichlorophenyl)but-1-en-1-yl)-2-(trifluoromethyl)benzamide], for which the pest or weed control at 50 µg/cm2 in experiment [1] and in experiment [3] was 50 to 100% in each case. Further, the YFM rating result in experiment [4] is on record as “A (80-100)”. For the same compound, the pest or weed control at 200 µg/mL in experiment [2] was 80 to 100%.
Consider `O=C(N[C@@H]1CON(CC(F)(F)F)C1=O)c1ccc(/C(F)=C/C(c2ccc(C(F)(F)F)c(Cl)c2)C(F)(F)F)cc1C(F)(F)F` (stereo partly drawn) [F180, 4-((Z)-3-(3-Chloro-4-(trifluoromethyl)phenyl)-1,4,4,4-tetrafluorobut-1-en-1-yl)-N—((R)-3-oxo-2-(2,2,2-trifluoroethyl)isoxazolidin-4-yl)-2-(trifluoromethyl)benzamide], for which the pest or weed control at 50 µg/cm2 in experiment [1] and in experiment [3] was 50 to 100% each time. For the same compound, in experiment [2], the pest or weed control at 200 µg/mL lay in the range of 80 to 100%.
Regarding `O=C(NC1(C(=O)NCC(F)(F)F)CC1)c1ccc(/C(F)=C/C(c2cc(Cl)cc(Br)c2)C(F)(F)F)cc1C(F)(F)F` (centres unmarked) [PF32, (Z)-4-(3-(3-Bromo-5-chlorophenyl)-1,4,4,4-tetrafluorobut-1-en-1-yl)-N-(1-((2,2,2-trifluoroethyl)carbamoyl)cyclopropyl)-2-(trifluoromethyl)benzamide], the pest or weed control at 200 µg/mL in experiment [2] was 0 to 80%.
